Measured values reported in PMC7724630, “Improving the Stability of EGFR Inhibitor Cobalt(III) Prodrugs” (Inorganic Chemistry, 2020).
Read-outs that look alike come from different tables or passages of the source.

Experiments:
[1] = Cyclic voltammetry, cathodic peak potential Co(III)/Co(II); type: physicochemical; settings: 10 mM phosphate buffer pH 7.40, 0.1 M KCl, scan rate 30 mV/s, 1.5 mM complex
Description: As the reduction process is crucial for the activation of cobalt(III)-based prodrug systems, the redox properties of the complexes were investigated to elucidate the effects of ligand methylation at different positions. Cyclic voltammetry measurements were performed in aqueous solution at pH 7.40 (10 mM phosphate buffer with 0.1 M KCl). […] Also, at a much higher scan speed of 1000 mV/s, the redox processes were still completely irreversible (Figure S5).
The compounds were dissolved in 10 mM phosphate buffer (pH 7.40), with 0.1 M KCl as the supporting electrolyte, to obtain a final concentration of 1.5 mM. Electrochemical experiments were conducted on an EG&G PARC 273A potentiostat/galvanostat with scan rates of 30 and 1000 mV/s at room temperature. Argon was bubbled through the solution before every measurement to remove oxygen. A three-electrode configuration cell was used with a glassy carbon electrode as the working electrode, which was polished before every measurement. The reference electrode was Ag/AgCl/KCl (3.5 M), and the auxiliary electrode was a platinum wire. Electrodes were conditioned regularly in 1 M H2SO4 for 5–10 cycles between voltage limits of −1.0 and 1.0 V at a scan rate of 100 mV/s. The system was calibrated with 1.5 mM K3[Fe(CN)6] for every experiment. Redox potentials measured relative to the Ag/AgCl/KCl (3.5 M) reference electrode were converted for potentials against NHE by the addition of 0.205 V. Measurements were repeated at least three times, and the mean values were calculated.

[2] = Interaction with low-molecular weight reducing agents (GSH, AA, NADH), UV-vis and fluorometric detection; type: physicochemical; settings: 10 equiv of GSH, pH 7.40, 25 °C, 24 h
Description: The interaction of AA, GSH, and NADH at pH 7.40 (phosphate buffer) was investigated exemplarily for Co(acac)2L^+ and Co(Meacac)2L^+. The reaction was followed by ultraviolet–visible (UV–vis) and fluorometric detection at 25 °C with a 10-fold excess of reducing agent. Spectrofluorometry was proven to be an effective technique for monitoring this redox reaction, because the free EGFR inhibitor ligand L is highly fluorescent, while its cobalt(III) complex has negligible emission (vide supra).[17] Accordingly, an increase in the emission intensity is expected upon reduction and concomitant release of the free ligand. […] The same tendency was observed by UV–vis detection (data not shown). […] AA and NADH were also not able to reduce the two complexes even after 24 h. […]
Proton dissociation processes of PhEn were followed by UV–vis spectrophotometry and spectrofluorometry; samples were prepared in water containing 100 and 10 μM ligand, respectively, and 0.1 M KCl at 25 ± 0.2 °C. The proton dissociation constants and the UV–vis or fluorescence emission spectra of the individual species in the various protonation states were calculated by deconvolution of the spectra recorded in the pH range of 2.0–11.5 with PSEQUAD.[40] […] Batch samples contained 30 μM cobalt(III) complex and 10 equiv of AA, GSH, or NADH in PBS buffer (pH 7.40) and were used only once to record their UV–vis and fluorescence spectra. […]

[3] = test system: EGFR phosphorylation at position Y1068 and ERK 1/2 in A431 cells; test: Western blot of EGFR signaling (pEGFR Y1068, pERK 1/2) after EGF stimulation; type: cell-based, Human; settings: A431 serum-starved, 2 h drug, EGF 50 ng/mL 10 min, normoxic
A431 cancer cells = test: MTT-based cytotoxicity assay under different O2 levels; type: cell-based, Human; settings: A431, 72 h
Serum stability, HPLC-MS = type: in vitro ADME; settings: FCS, 37 °C, pH 7.4, 50 μM, 26 h
Description: The data presented in the previous sections indicate that even in the presence of low-molecular weight reducing agents the cobalt(III) complexes are completely stable. Therefore, we wanted to investigate if this is still true in a more elaborate biological environment like blood serum. To this end, the four EGFR inhibitor complexes were dissolved in 50 mM phosphate puffer and mixed in a 1:10 ratio with fetal calf serum (FCS; buffered with 150 mM phosphate buffer to keep a stable pH of 7.4) to a final concentration of 50 μM. The samples were incubated at 37 °C and after 0, 2, 6, 24, and 26 h extracted with acetonitrile and measured by HPLC-MS. […] The intact complex could be observed at 14.2 min (blue peak, m/z 614.0). The red signal at the same retention time (Figure 7A; 14.2 min, m/z 358.1) is a mass spectrometry artifact and belongs to the free ligand generated during ionization of the complex.
For serum stability measurements, 135 μL of FCS, buffered with 150 mM phosphate (Na2HPO4/NaH2PO4) to maintain a pH value of 7.4, was mixed with 15 μL of a 500 μM stock solution of the respective complex in 50 mM phosphate buffer to reach a final concentration of 50 μM. The samples were incubated at 37 °C. At different time points, to 20 μL of serum was added 40 μL of ACN. […] The supernatant was taken up with a syringe and directly measured via HPLC-MS.

EGFR (ErbB1) = EGFR (ErbB1) (Homo sapiens, UniProt P00533); test: Cell-free kinase inhibition assay (ZLYTE, Select Screen); type: biochemical; settings: 10 μM ATP (10-fold excess of ATP), 1% DMSO
[4] = set-up: method as in PMID 29567575; settings: pH 7.40; cited from earlier work
[5] = previous work; cited from earlier work
[6] = test system: EGFR phosphorylation at position Y1068 and ERK 1/2 in A431 cells; set-up: method as in PMID 25079700; settings: A431, normoxic; cited from earlier work
[7] = 0.1% O2, read-out: IC50 hypoxia with 0.1% O2
[8] = 1% O2, read-out: IC50 hypoxia with 1% O2
[9] = 5% O2, read-out: IC50 hypoxia with 5% O2
[10] = 21% O2, read-out: IC50 normoxia

EGFR (ErbB1), sequence (P00533 25-1210): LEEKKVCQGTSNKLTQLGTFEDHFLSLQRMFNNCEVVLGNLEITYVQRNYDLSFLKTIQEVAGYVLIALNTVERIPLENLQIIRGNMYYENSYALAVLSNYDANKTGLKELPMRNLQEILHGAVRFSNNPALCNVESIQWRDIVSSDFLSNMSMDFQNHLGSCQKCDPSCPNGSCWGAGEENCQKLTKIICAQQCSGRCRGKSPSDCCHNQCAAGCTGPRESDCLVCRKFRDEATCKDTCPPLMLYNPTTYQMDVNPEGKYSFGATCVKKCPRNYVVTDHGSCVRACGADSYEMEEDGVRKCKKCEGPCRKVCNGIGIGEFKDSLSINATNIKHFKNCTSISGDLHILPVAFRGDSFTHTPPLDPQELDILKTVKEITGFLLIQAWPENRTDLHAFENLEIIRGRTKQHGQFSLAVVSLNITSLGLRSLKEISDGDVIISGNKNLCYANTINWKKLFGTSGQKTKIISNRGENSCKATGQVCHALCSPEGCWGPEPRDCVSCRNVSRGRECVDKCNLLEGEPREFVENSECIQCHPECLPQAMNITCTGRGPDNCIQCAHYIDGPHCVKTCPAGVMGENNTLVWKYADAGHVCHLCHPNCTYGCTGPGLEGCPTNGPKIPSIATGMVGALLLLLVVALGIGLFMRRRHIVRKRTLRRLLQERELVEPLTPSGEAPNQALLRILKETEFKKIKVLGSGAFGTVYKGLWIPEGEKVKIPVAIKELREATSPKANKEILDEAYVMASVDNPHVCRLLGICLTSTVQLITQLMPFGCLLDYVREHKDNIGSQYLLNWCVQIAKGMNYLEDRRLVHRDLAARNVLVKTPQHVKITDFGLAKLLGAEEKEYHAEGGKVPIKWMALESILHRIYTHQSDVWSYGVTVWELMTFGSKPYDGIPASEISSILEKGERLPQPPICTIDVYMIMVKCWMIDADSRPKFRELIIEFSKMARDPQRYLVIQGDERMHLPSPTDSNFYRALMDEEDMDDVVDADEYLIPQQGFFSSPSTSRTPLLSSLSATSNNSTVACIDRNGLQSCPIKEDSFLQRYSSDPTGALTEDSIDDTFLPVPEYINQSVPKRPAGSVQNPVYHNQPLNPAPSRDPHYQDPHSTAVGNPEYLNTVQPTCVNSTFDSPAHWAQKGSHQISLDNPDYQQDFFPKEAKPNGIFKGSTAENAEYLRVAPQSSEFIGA

In the case of `CC(=O)[C-](C)C(C)=O.CC(=O)[C-](C)C(C)=O.NCCNc1ccc2ncnc(Nc3cccc(Br)c3)c2c1.[Cl-].[Co+3]` [Co(Meacac)2L^+, Bis(3-methyl-2,4-pentanedionato) N^6-(2-Aminoethyl)-N^4-(3-bromophenyl)quinazoline-4,6-diamine Cobalt(III) Chloride], the “cathodic peak potential (Ec) vs NHE” value [1] is reported as 4 mV, the “reduction / release of free ligand L by GSH” value [2] is reported as “practically no reduction process” and the “EGFR-inhibitory potential (pEGFR, pERK 1/2)” value [3] is reported as “distinctly weakened EGFR-inhibitory potential”. The IC50 (A431 cancer cells; [7]) was 23.5 ± 5.1 µM, the IC50 (A431 cancer cells; [8]) was 25.3 ± 3.9 µM and the IC50 (A431 cancer cells; [9]) was 45.5 ± 2.7 µM. It also gave an IC50 (A431 cancer cells; [10]) of 51.9 ± 9.4 µM.

With `CC(=O)[CH-]C(C)=O.CC(=O)[CH-]C(C)=O.CNCCNc1ccc2ncnc(Nc3cccc(Br)c3)c2c1.[Cl-].[Co+3]` [Co(acac)2MeL^+, Bis(2,4-pentanedionato) N^4-(3-Bromophenyl)-N^6-[2-(methylamino)ethyl]quinazoline-4,6-diamine Cobalt(III) Chloride] the “cathodic peak potential (Ec) vs NHE” value [1] was 120 mV, the “intact compound after serum incubation” value (Serum stability, HPLC-MS) was 50% and the IC50 (A431 cancer cells; [7]) was 11.9 ± 3.5 µM. The IC50 (A431 cancer cells; [8]) was 12.5 ± 3.1 µM, the IC50 (A431 cancer cells; [9]) was 13.5 ± 3.2 µM and the IC50 (A431 cancer cells; [10]) was 15.1 ± 1.6 µM. For the same compound, the “cobalt complex less active than the respective free ligand” value (A431 cancer cells; normoxia) was ~2 fold.

Work on `NCCNc1ccc2ncnc(Nc3cccc(Br)c3)c2c1` [L, N^6-(2-Aminoethyl)-N^4-(3-bromophenyl)quinazoline-4,6-diamine] yielded an IC50 (EGFR (ErbB1)) of 0.29 nM, an IC50 (A431 cancer cells; Homo sapiens, A-431, 0.1% O2, read-out: IC50 hypoxia with 0.1% O2) of 13.7 ± 2.9 µM and an IC50 (A431 cancer cells; Homo sapiens, A-431, 1% O2, read-out: IC50 hypoxia with 1% O2) of 12.7 ± 2 µM. For the same compound, the IC50 (A431 cancer cells; Homo sapiens, A-431, 5% O2, read-out: IC50 hypoxia with 5% O2) was 12.8 ± 0.9 µM, the IC50 (A431 cancer cells; Homo sapiens, A-431, 21% O2, read-out: IC50 normoxia) was 12 ± 1.3 µM and the “log D7.40” value [4] was 1.86 ± 0.03[29]. The pKa1 [5] was < 1.0, the pKa2 [5] was 9.21 and the “EGFR-inhibitory potential (pEGFR, pERK 1/2)” value [6] was “potent EGFR inhibition”.
